# Molecular target: Active Human ERK2 (hERK2) (Homo sapiens (Human), UniProt P28482)
# Assay: Active Human ERK2 (hERK2) Activity Assay (IMAP-FP)
# Assay type: biochemical
# Details: phosphorylated active hERK2, 30 μM ATP; average; read-out: ERK 2 Human average IC50
# In short: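 Phosphorylation by activated human ERK2 (0.5 nM) at 30 μM ATP, peptide substrate 900 nM unlabeled with 80 nM labeled, proceeds 60 min. IMAP beads stop the reaction; after 60 min equilibration, product is measured by fluorescence polarization.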
# Active Human ERK2 (hERK2), sequence (P28482 whole entry): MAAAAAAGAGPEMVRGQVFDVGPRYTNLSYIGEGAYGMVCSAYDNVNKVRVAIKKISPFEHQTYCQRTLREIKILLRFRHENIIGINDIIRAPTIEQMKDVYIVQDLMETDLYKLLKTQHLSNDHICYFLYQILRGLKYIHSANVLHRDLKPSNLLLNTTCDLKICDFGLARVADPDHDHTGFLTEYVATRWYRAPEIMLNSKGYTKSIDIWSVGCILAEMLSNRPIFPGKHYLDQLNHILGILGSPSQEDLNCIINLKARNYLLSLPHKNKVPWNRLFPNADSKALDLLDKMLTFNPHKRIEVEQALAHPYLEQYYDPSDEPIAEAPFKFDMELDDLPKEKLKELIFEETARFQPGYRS
row,SMILES,IC50
1,COC[C@H](NC(=O)Nc1cc2[nH]nc(-c3ccnc(C)c3)c2cn1)c1ccccn1 [Example 415],20 nM
2,Cc1cc(-c2n[nH]c3cc(NC(=O)NC4CCNC4)ncc23)ccn1 (stereo not drawn) [Example 579],10.6 nM
3,Cc1cc(-c2n[nH]c3cc(NC(=O)NCC4COC4)ncc23)ccn1 [Example 588],30.9 nM
4,"COCCNC(=O)Nc1cc2[nH]nc(-c3ccc(C#N)cc3)c2cn1 [Example 624, 1-[3-(4-Cyanophenyl)-1H-pyrazolo[4,3-c]pyridin-6-yl]-3-(2-methoxyethyl)urea]",4.38 nM
5,C[C@@H](NC(=O)Nc1cc2[nH]nc(C3CCC3)c2cn1)c1ccccc1 [Example 145],2.44 nM
6,O=C(Nc1cc2[nH]nc(-c3ccc(F)cc3)c2cn1)NC1CCOC1 (stereo not drawn) [Example 612],12.6 nM
7,COC[C@H](NC(=O)Nc1cc2[nH]nc(-c3ccc(F)cc3)c2cn1)c1ccccn1 [Example 486],23.5 nM
8,[2H]C([2H])([2H])OC[C@@H](NC(=O)Nc1cc2[nH]nc(C3CC3)c2cn1)c1ccccc1 [Example 161],5.8 nM
9,CCNC(=O)c1n[nH]c2cc(NC(=O)N[C@H](C)c3ccccc3)ncc12 [Example 138],5.28 nM
10,"Cc1cc(-c2n[nH]c3cc(NC(=O)NC=C4CC4)ncc23)ccn1 [Example 38, 1-(cyclopropylidenemethyl)-3-[3-(2-methylpyridin-4-yl)-1H-pyrazolo[4,3-c]pyridin-6-yl]urea]",481 nM
11,Cc1cc(-c2n[nH]c3cc(NC(=O)NCc4ccc(C#N)cc4)ncc23)ccn1 [Example 445],3.73 nM
12,CCc1c(NC(=O)N[C@H](C)c2ccccc2)ncc2c(-c3ccnc(C)c3)n[nH]c12 [Example 175],6.68 nM
13,C[C@@H](NC(=O)Nc1cc2[nH]nc(C(=O)NCC3CCN(C4CC4)C3)c2cn1)c1ccccc1 (stereo partly drawn) [Example 129],13.6 nM
14,O=C(NCC1CCOC1)Nc1cc2[nH]nc(-c3ccc(F)cc3)c2cn1 (stereo not drawn) [Example 220],2.46 nM
15,Cc1cc(-c2n[nH]c3cc(NC(=O)NCC4COCCO4)ncc23)ccn1 (stereo not drawn) [Example 464],3.57 nM
16,Cc1cc(-c2n[nH]c3cc(NC(=O)NC4(CN)CCc5cc(F)ccc54)ncc23)ccn1 (stereo not drawn) [Example 492],26 nM
17,"O=C(NCc1ccc(F)cc1)Nc1cc2[nH]nc(C3CC3)c2cn1 [Example 140, 1-(3-cyclopropyl-1H-pyrazolo[4,3-c]pyridin-6-yl)-3-(4-fluorobenzyl)urea]",23.5 nM
18,O=C(Nc1cc2[nH]nc(-c3ccc(F)cc3)c2cn1)NC1CCOC1 (stereo not drawn) [Example 609],5.83 nM
19,Cc1cc(-c2n[nH]c3cc(NC(=O)NCc4ccc(Cl)cc4C)ncc23)ccn1 [Example 515],2.45 nM

row,SMILES,IC50
1,C[C@@H](NC(=O)Nc1cc2[nH]nc(C3CCCC3)c2cn1)c1ccccc1 [Example 653],4.16 nM
2,Cc1cc(-c2n[nH]c3cc(NC(=O)NC4CCCC(Oc5cccc(F)c5)C4)ncc23)ccn1 (stereo not drawn) [Example 659],51.9 nM
3,Cc1cc(-c2n[nH]c3cc(NC(=O)N[C@@H]4CNC[C@@H]4c4ccccc4)ncc23)ccn1 [Example 180],4.58 nM
4,"C[C@@H](NC(=O)Nc1cc2[nH]nc(-c3ccnc(Cl)c3)c2cn1)c1ccc(F)c(Cl)c1 [Example 75, 1-[(1R)-1-(3-chloro-4-fluorophenyl)ethyl]-3-[3-(2-chloropyridin-4-yl)-1H-pyrazolo[4,3-c]pyridin-6-yl]urea]",2.64 nM
5,Cc1cc(-c2n[nH]c3cc(NC(=O)NCc4nnc(-c5ccccc5)[nH]4)ncc23)ccn1 [Example 397],48.1 nM
6,C[C@@H](NC(=O)Nc1cc2[nH]nc(C(=O)NCC3(O)CC3)c2cn1)c1ccccc1 [Example 124],6.38 nM
7,Cc1cc(-c2n[nH]c3cc(NC(=O)N[C@@H](C)c4ccncc4)ncc23)ccn1 [Example 235],21.9 nM
8,Cc1cc(-c2n[nH]c3cc(NC(=O)NCc4ccc(Cl)cc4F)ncc23)ccn1 [Example 521],3.31 nM
9,"COCCNC(=O)c1n[nH]c2cc(NC(=O)N[C@H](C)c3ccccc3)ncc12 [Example 116, N-(2-methoxyethyl)-6-({[(1R)-1-phenylethyl]carbamoyl}amino)-1H-pyrazolo[4,3-c]pyridine-3-carboxamide]",10.7 nM
10,COC(=O)C1CC1c1n[nH]c2cc(NC(=O)N[C@H](C)c3ccccc3)ncc12 (stereo partly drawn) [Example 641],1100 nM
11,"Cc1cc(-c2n[nH]c3cc(NC(=O)NC4(c5ccc(Cl)cc5)CCOCC4)ncc23)ccn1 [Example 77, 1-[4-(4-chlorophenyl)tetrahydro-2H-pyran-4-yl]-3-[3-(2-methylpyridin-4-yl)-1H-pyrazolo[4,3-c]pyridin-6-yl]urea]",15.1 nM
12,Cc1cc(-c2n[nH]c3cc(NC(=O)NCc4ccc(Cl)cn4)ncc23)ccn1 [Example 478],6.01 nM
13,CC1=NOC(CNC(=O)Nc2cc3[nH]nc(-c4ccnc(C)c4)c3cn2)C1 (stereo not drawn) [Example 191],17.6 nM
14,Cc1cc(-c2n[nH]c3cc(NC(=O)N[C@@H]4CCc5ccc(F)cc54)ncc23)ccn1 [Example 270],3.73 nM
15,Cc1cc(-c2n[nH]c3cc(NC(=O)NC4CC(=O)Nc5ccccc54)ncc23)ccn1 (stereo not drawn) [Example 407],5.72 nM
16,C[C@@H](NC(=O)Nc1cc2[nH]nc(C3CC3)c2cn1)c1ccc(Cl)cc1 [Example 150],10.4 nM
17,COCCNC(=O)Nc1cc2[nH]nc(-c3cc(C)nc(OC)c3)c2cn1 [Example 631],17.4 nM
18,COc1cc(CNC(=O)Nc2cc3[nH]nc(-c4ccnc(C)c4)c3cn2)on1 [Example 472],11.1 nM
19,CC(=O)OC1CCCC(NC(=O)Nc2cc3[nH]nc(-c4ccnc(C)c4)c3cn2)C1 (stereo not drawn) [Example 381],6.71 nM

# Compounds with a lower IC50, results first:
row,IC50,SMILES
1,2.06 nM,Cc1cc(-c2n[nH]c3cc(NC(=O)NCCC(=O)Nc4ccccc4Br)ncc23)ccn1 [Example 399]
2,1.91 nM,Cc1cc(-c2n[nH]c3cc(NC(=O)NCc4ncc(F)cc4F)ncc23)ccn1 [Example 450]
3,1.91 nM,C[C@@H](NC(=O)Nc1cc2[nH]nc(-c3ccnc(N4CCOCC4)c3)c2cn1)c1ccc(F)cc1 [Example 281]
4,1.62 nM,CCCNC(=O)Nc1cc2[nH]nc(-c3ccnc(C)c3)c2cn1 [Example 572]
5,1.57 nM,"Cc1cc(-c2n[nH]c3cc(NC(=O)N[C@H]4CN(C)C[C@@H]4F)ncc23)ccn1 [Example 328, 1-((3S,4S)-4-fluoro-1-methylpyrrolidin-3-yl)-3-(3-(2-methylpyridin-4-yl)-1H-pyrazolo[4,3-c]pyridin-6-yl)urea]"
6,1.5 nM,COCCNC(=O)Nc1cc2[nH]nc(-c3ccnc(C4CC4)c3)c2cn1 [Example 629]
7,1.33 nM,COC(=O)C1CC1c1n[nH]c2cc(NC(=O)N[C@H](C)c3ccccc3)ncc12 (stereo partly drawn) [Example 643]
8,0.995 nM,O=C(NCc1ccno1)Nc1cc2[nH]nc(-c3ccc(F)cc3)c2cn1 [Example 222]
9,0.939 nM,Cc1cc(-c2n[nH]c3cc(NC(=O)NCC(c4ccccc4)C4(O)CCOCC4)ncc23)ccn1 (stereo not drawn) [Example 385]
10,0.935 nM,Cc1cc(-c2n[nH]c3cc(NC(=O)NC(c4ccc(F)cc4)C4CCCO4)ncc23)ccn1 (stereo not drawn) [Example 238]
11,0.929 nM,COc1cccc(F)c1CN1CCC[C@@H](NC(=O)Nc2cc3[nH]nc(-c4ccc5nn(C)cc5c4)c3cn2)C1 [Example 662]
12,0.861 nM,Cc1cc(-c2n[nH]c3cc(NC(=O)N[C@H](C)c4ccc(C#N)cc4)ncc23)ccn1 [Example 234]
13,0.728 nM,C[C@@H](NC(=O)Nc1ncc2c(-c3ccnc(F)c3)n[nH]c2c1F)c1ccccc1 [Example 539]
14,0.662 nM,Cc1cc(-c2n[nH]c3cc(NC(=O)N[C@H]4CN(C)C[C@@H]4c4ccccc4F)ncc23)ccn1 [Example 183]
15,0.608 nM,COc1ncccc1CNC(=O)Nc1cc2[nH]nc(-c3ccnc(C)c3)c2cn1 [Example 495]
16,0.566 nM,Cc1cc(-c2n[nH]c3cc(NC(=O)NC(c4ccccc4)C4CCCO4)ncc23)ccn1 (stereo not drawn) [Example 237]
17,0.561 nM,Cc1cc(-c2n[nH]c3cc(NC(=O)NCC4CCCCC4)ncc23)ccn1 [Example 578]
18,0.537 nM,Cc1cc(-c2n[nH]c3cc(NC(=O)N[C@H]4CN(C)C[C@@H]4c4ccccc4C)ncc23)ccn1 [Example 207]
19,0.527 nM,"Cc1cc(-c2n[nH]c3cc(NC(=O)N[C@H]4CN(C)C[C@@H]4c4ccccc4C(F)(F)F)ncc23)ccn1 [Example 178, 1-((3R,4S)-1-Methyl-4-(2-(trifluoromethyl)phenyl)pyrrolidin-3-yl)-3-(3-(2-methylpyridin-4-yl)-1H-pyrazolo[4,3-c]pyridin-6-yl)urea]"
20,0.378 nM,Cc1cc(-c2n[nH]c3cc(NC(=O)Nc4noc5cnccc45)ncc23)ccn1 [Example 360]
21,0.366 nM,C[C@@H](NC(=O)Nc1cc2[nH]nc(-c3cnc(O)nc3)c2cn1)c1ccccc1 [Example 290]
22,0.358 nM,Cc1cc(-c2n[nH]c3cc(NC(=O)NCc4ccccc4OCC(F)F)ncc23)ccn1 [Example 525]
23,0.335 nM,COC[C@@H](NC(=O)Nc1cc2[nH]nc(-c3ccc(C#N)cc3)c2cn1)c1ccccc1 [Example 607]
24,0.334 nM,"C[C@@H](NC(=O)Nc1cc2[nH]nc(-c3cnn(C)c3)c2cn1)c1ccccc1 [Example 29, 1-[3-(1-methyl-1H-pyrazol-4-yl)-1H-pyrazolo[4,3-c]pyridin-6-yl]-3-[(1R)-1-phenylethyl]urea]"
25,0.303 nM,Cc1cc(-c2n[nH]c3cc(NC(=O)N[C@H](C)c4ccc(F)c(F)c4)ncc23)ccn1 [Example 412]
26,0.288 nM,Cc1cc(-c2n[nH]c3cc(NC(=O)N[C@H](CO)c4cccc5cc[nH]c45)ncc23)ccn1 [Example 362]
27,0.272 nM,COC[C@@H](NC(=O)Nc1ncc2c(-c3ccnc(F)c3)n[nH]c2c1F)c1ccccc1 [Example 543]
28,0.251 nM,C[C@@H](NC(=O)Nc1cc2[nH]nc(-c3ccnc(F)c3)c2cn1)c1ccccc1 [Example 636]
29,0.235 nM,"Cc1cc(-c2n[nH]c3c(F)c(NC(=O)N[C@H](C)c4ccccc4)ncc23)ccn1 [Example 95, 1-[7-fluoro-3-(2-methylpyridin-4-yl)-1H-pyrazolo[4,3-c]pyridin-6-yl]-3-[(1R)-1-phenylethyl]urea]"

# Same assay, conditions: read-out: AERK2 IC50 (Active human ERK2 Activity Assay)
row,IC50,SMILES
1,0.2 to 1.7 nM,"C[C@@H](NC(=O)Nc1cc2[nH]nc(-c3cnn(C)c3)c2cn1)c1ccccc1 [Example 29, 1-[3-(1-methyl-1H-pyrazol-4-yl)-1H-pyrazolo[4,3-c]pyridin-6-yl]-3-[(1R)-1-phenylethyl]urea]"
2,0.2 to 1.7 nM,"Cc1cc(-c2n[nH]c3c(F)c(NC(=O)N[C@H](C)c4ccccc4)ncc23)ccn1 [Example 95, 1-[7-fluoro-3-(2-methylpyridin-4-yl)-1H-pyrazolo[4,3-c]pyridin-6-yl]-3-[(1R)-1-phenylethyl]urea]"
